Laboratory results published in the supplement of paper PMC10307832.

What was measured:
Experiment in all cases: relative viability (nuclei count vs DMSO), 5 days (fraction); higher = more cells survive
RAF265 + Dasatinib = compound: Cn1c(Nc2ccc(C(F)(F)F)cc2)nc2cc(Oc3ccnc(-c4ncc(C(F)(F)F)[nH]4)c3)ccc21 [RAF265] + Cc1nc(Nc2ncc(C(=O)Nc3c(C)cccc3Cl)s2)cc(N2CCN(CCO)CC2)n1 [Dasatinib] (partner 0.075 µM)
Outline: (§1)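 The day after seeding in 1536-well plates, lung cancer cell lines were treated by pin tool with a single drug, or with a fixed anchor-drug dose together with five library-drug doses (not always all listed) in √10 steps. After 5 days, a combined fix-and-stain solution (final 0.05% Triton X-100, 1% formaldehyde, 1 ug/ml Hoechst) was added. Nuclei counted on 4× images gave relative viability as treated counts over vehicle counts, reported as the median of duplicate plates.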

Doramapimod + Lapatinib = compound: Cc1ccc(-n2nc(C(C)(C)C)cc2NC(=O)Nc2ccc(OCCN3CCOCC3)c3ccccc23)cc1 [Doramapimod] + CS(=O)(=O)CCNCc1ccc(-c2ccc3ncnc(Nc4ccc(OCc5cccc(F)c5)c(Cl)c4)c3c2)o1 [Lapatinib] (partner 2 µM)
Outline: as §1

Doramapimod + Crizotinib = compound: Cc1ccc(-n2nc(C(C)(C)C)cc2NC(=O)Nc2ccc(OCCN3CCOCC3)c3ccccc23)cc1 [Doramapimod] + C[C@@H](Oc1cc(-c2cnn(C3CCNCC3)c2)cnc1N)c1c(Cl)ccc(F)c1Cl [Crizotinib] (partner 1 µM)
Outline: as §1

Cell Line | relative viability (RAF265 + Dasatinib; first compound 0.01 µM) | relative viability (RAF265 + Dasatinib; first compound 0.03162 µM) | relative viability (RAF265 + Dasatinib; first compound 0.1 µM) | relative viability (RAF265 + Dasatinib; first compound 0.3162 µM) | relative viability (RAF265 + Dasatinib; first compound 1 µM) | relative viability (Doramapimod + Lapatinib; first compound 0.02 µM) | relative viability (Doramapimod + Lapatinib; first compound 0.06325 µM) | relative viability (Doramapimod + Lapatinib; first compound 0.2 µM) | relative viability (Doramapimod + Lapatinib; first compound 0.6325 µM) | relative viability (Doramapimod + Lapatinib; first compound 2 µM) | relative viability (Doramapimod + Crizotinib; first compound 0.02 µM) | relative viability (Doramapimod + Crizotinib; first compound 0.06325 µM) | relative viability (Doramapimod + Crizotinib; first compound 0.2 µM) | relative viability (Doramapimod + Crizotinib; first compound 0.6325 µM) | relative viability (Doramapimod + Crizotinib; first compound 2 µM)
SK-MES-1 | 0.482 | 0.203 | 0.164 | 0.171 | 0.157 | 0.455 | 0.453 | 0.389 | 0.451 | 0.376 | 1.01 | 0.977 | 0.933 | 0.917 | 0.887
NCI-H2405 | 0.242 | 0.194 | 0.191 | 0.159 | 0.193 | 1.15 | 1.1 | 1.07 | 1.16 | 0.969 | 0.822 | 0.826 | 0.877 | 0.996 | 0.798
NCI-H2023 | 0.601 | 0.562 | 0.516 | 0.419 | 0.365 | 0.79 | 0.636 | 0.78 | 0.105 | 0.807 | 0.695 | 0.629 | 0.575 | 0.666 | 0.625
NCI-H838 | 0.332 | 0.3 | 0.288 | 0.256 | 0.256 | 0.982 | 0.996 | 1.19 | 1.27 | 0.843 | 0.847 | 0.807 | 0.872 | 1.01 | 0.799
NCI-H1563 | 0.469 | 0.482 | 0.508 | 0.45 | 0.441 | 0.935 | 0.923 | 1.04 | 0.681 | 0.907 | 0.977 | 0.917 | 0.859 | 0.893 | 0.612
NCI-H661 | 0.925 | 0.771 | 0.546 | 0.598 | 0.42 | 0.477 | 0.438 | 0.48 | 0.588 | 0.413 | 1.15 | 1.07 | 1 | 0.964 | 1.03
NCI-H1734 | 0.482 | 0.373 | 0.369 | 0.358 | 0.266 | 1.27 | 0.963 | 0.932 | 1.04 | 0.928 | 0.665 | 0.639 | 0.589 | 0.659 | 0.495
NCI-H1650 | 0.413 | 0.392 | 0.342 | 0.399 | 0.282 | 0.665 | 0.736 | 0.795 | 0.247 | 0.786 | 0.969 | 1.02 | 1.13 | 1.04 | 1.02
NCI-H596 | 0.63 | 0.76 | 0.582 | 0.612 | 0.366 | 1.03 | 1.15 | 1.14 | 1.33 | 1.07 | 0.95 | 0.95 | 1.02 | 1.01 | 1
NCI-H1944 | 0.284 | 0.277 | 0.225 | 0.178 | 0.19 | 0.761 | 0.823 | 0.722 | 0.963 | 0.585 | 1.09 | 0.993 | 1.14 | 1.16 | 1.11
LK-2 | 0.272 | 0.295 | 0.291 | 0.394 | 0.213 | 0.972 | 0.873 | 0.904 | 0.68 | 0.754 | 0.246 | 0.266 | 0.207 | 0.207 | 0.205
HCC-15 | 0.66 | 0.662 | 0.688 | 0.426 | 0.337 | 0.864 | 0.962 | 0.84 | 0.521 | 0.752 | 0.836 | 0.731 | 0.838 | 0.887 | 0.718
NCI-H727 | 0.57 | 0.427 | 0.352 | 0.279 | 0.23 | 0.969 | 0.731 | 0.815 | 0.778 | 0.933 | 0.973 | 1.06 | 0.862 | 0.643 | 0.759
HOP-62 | 0.747 | 0.618 | 0.647 | 0.691 | 0.504 | 0.918 | 1.12 | 0.991 | 0.95 | 0.927 | 0.888 | 1.02 | 1.12 | 0.597 | 0.968
NCI-H3122 | 0.463 | 0.937 | 0.904 | 0.669 | 0.521 | 1.02 | 0.962 | 0.974 | 1.08 | 0.932 | 0.268 | 0.267 | 0.223 | 0.256 | 0.266
NCI-H647 | 0.197 | 0.132 | 0.242 | 0.0861 | 0.0896 | 0.789 | 1.09 | 1.21 | 1.06 | 0.826 | 1.1 | 1.03 | 0.992 | 0.96 | 0.833
NCI-H650 | 0.464 | 0.429 | 0.369 | 0.265 | 0.259 | 1.03 | 0.938 | 1.43 | 0.921 | 0.844 | 0.77 | 0.661 | 0.826 | 0.783 | 0.668
EKVX | 0.598 | 0.606 | 0.756 |  | 0.382 | 0.194 | 0.189 | 0.202 | 0.251 | 0.59 | 0.986 | 0.98 | 0.822 | 0.951 | 0.918
NCI-H460 | 0.686 | 0.535 | 0.596 | 0.371 | 0.266 | 0.889 | 0.962 | 0.858 | 0.946 | 0.934 | 0.807 | 0.806 | 0.986 | 0.846 | 0.794

Cell Line | relative viability (RAF265 + Dasatinib; first compound 0.01 µM) | relative viability (RAF265 + Dasatinib; first compound 0.03162 µM) | relative viability (RAF265 + Dasatinib; first compound 0.1 µM) | relative viability (RAF265 + Dasatinib; first compound 0.3162 µM) | relative viability (RAF265 + Dasatinib; first compound 1 µM) | relative viability (Doramapimod + Lapatinib; first compound 0.02 µM) | relative viability (Doramapimod + Lapatinib; first compound 0.06325 µM) | relative viability (Doramapimod + Lapatinib; first compound 0.2 µM) | relative viability (Doramapimod + Lapatinib; first compound 0.6325 µM) | relative viability (Doramapimod + Lapatinib; first compound 2 µM) | relative viability (Doramapimod + Crizotinib; first compound 0.02 µM) | relative viability (Doramapimod + Crizotinib; first compound 0.06325 µM) | relative viability (Doramapimod + Crizotinib; first compound 0.2 µM) | relative viability (Doramapimod + Crizotinib; first compound 0.6325 µM) | relative viability (Doramapimod + Crizotinib; first compound 2 µM)
LCLC-97TM1 | 0.826 | 0.826 | 0.66 | 0.852 | 0.442 | 0.859 | 0.792 | 1 | 1.05 | 0.853 | 0.326 | 0.357 | 0.31 | 0.338 | 0.209
COR-L23 | 0.503 | 0.473 | 0.383 | 0.32 | 0.251 | 1.09 | 1.1 | 0.99 | 1.01 | 0.91 | 0.705 | 0.573 | 0.571 | 0.651 | 0.667
NCI-H1355 | 0.804 | 0.709 | 0.545 | 0.601 | 0.264 | 0.972 | 0.992 | 0.964 | 0.95 | 0.952 | 0.981 | 1.08 | 1.11 | 1.04 | 1.03
NCI-H1666 | 0.868 | 0.814 | 0.768 | 0.87 | 0.781 | 0.814 | 0.702 | 0.654 | 0.637 | 0.68 | 1.21 | 0.907 | 0.959 | 1.08 | 0.935
EPLC-272H | 0.34 | 0.303 | 0.238 | 0.234 | 0.139 | 0.942 | 0.983 | 0.945 | 0.979 | 0.745 | 0.942 | 0.975 | 1.17 | 0.974 | 0.972
NCI-H1651 | 0.417 | 0.408 | 0.368 | 0.398 | 0.263 | 0.878 | 0.791 | 0.864 | 0.99 | 0.781 | 0.847 | 0.871 | 0.875 | 0.89 | 0.851
SW 1573 | 0.54 | 0.442 | 0.31 | 0.29 | 0.21 | 0.982 | 0.939 | 0.897 | 1.04 | 1.2 | 0.827 | 0.613 | 0.646 | 0.75 | 0.743
PC-3 [JPC-3] | 0.985 | 0.908 | 1 |  | 0.696 | 0.475 | 0.433 | 0.432 | 0.485 | 0.348 | 1 | 1 | 1.06 | 1.08 | 0.955
LOU-NH91 | 0.563 | 0.49 | 0.497 | 0.45 | 0.343 | 0.693 | 0.673 | 0.678 | 0.631 | 0.628 | 0.729 | 0.724 | 0.749 | 0.796 | 0.61
PC-14 | 0.262 | 0.274 | 0.241 |  | 0.0905 | 0.292 | 0.322 | 0.346 | 0.425 | 0.319 | 0.896 | 0.913 | 0.906 | 0.855 | 0.853
NCI-H2087 | 0.743 | 0.76 | 0.6 | 0.639 | 0.383 | 1.06 | 1.11 | 1.02 | 0.869 | 0.961 | 0.982 | 0.888 | 0.922 | 0.908 | 0.988
LU99A | 0.534 | 0.454 | 0.472 | 0.3 | 0.179 | 0.959 | 1 | 0.981 | 1.1 | 0.897 | 0.562 | 0.541 | 0.533 | 0.585 | 0.442
BEN | 0.28 | 0.323 | 0.379 | 0.358 | 0.356 | 0.728 | 0.687 | 0.746 | 0.475 | 0.717 | 0.855 | 0.683 | 0.85 | 0.742 | 0.761
SK-LU-1 | 0.177 | 0.177 | 0.166 | 0.181 | 0.137 | 0.975 | 0.947 | 0.971 | 0.806 | 0.762 | 0.915 | 0.929 | 0.909 | 0.83 | 0.92
NCI-H1975 | 0.335 | 0.226 | 0.237 | 0.177 | 0.124 | 0.937 | 0.947 | 0.898 | 1.23 | 0.901 | 1.05 | 0.944 | 0.897 | 0.973 | 0.96
RERF-LC-KJ | 0.822 | 0.735 | 0.658 | 0.456 | 0.4 | 0.983 | 0.946 | 0.879 | 0.908 | 0.814 | 0.88 | 0.888 | 0.826 | 0.789 | 0.823
HCC-78 | 0.371 | 0.482 | 0.457 | 0.387 | 0.34 | 0.745 | 0.936 | 0.79 | 0.837 | 0.885 | 0.356 | 0.364 | 0.336 | 0.399 | 0.358
NCI-H1915 | 0.342 | 0.332 | 0.213 | 0.151 | 0.137 | 0.973 | 1.1 | 1.01 | 0.995 | 0.844 | 0.907 | 0.894 | 0.915 | 0.918 | 0.779
